From PMC9542405, “Design, synthesis and antitumor activity of 5-trifluoromethylpyrimidine derivatives as EGFR inhibitors” (Journal of Enzyme Inhibition and Medicinal Chemistry, 2022)

Key:
[1] = system: A549 cells; assay: A549 cell apoptosis (Annexin V-FITC/PI flow cytometry); conditions: 48 h
Protocol: And then, the original culture medium was replaced with 0.1 μM, 0.5 μM, and 1 μM compounds (Geftinib or the testing compound) in the cell incubator for 48 h. After trypsin digests cells, the cells were collected after centrifugation, resuspended with PBS and counted. After suspension of the cells with Annexin V – FITC binding solution and mixing with PI staining solution, the fluorescence density was detected by flow cytometry in BD Accuri C6 flow cytometry, which was provided by School of Pharmaceutical Sciences, Guizhou University, China.

[2] = system: A549 cells; assay: A549 cell cycle analysis (flow cytometry); format: cell-based, Human
[3] = molecular target: T1, EGFR^wt-TK (Homo sapiens, UniProt P00533); assay: In vitro EGFR^wt-TK assay (ELISA kit); format: biochemical; conditions: mean ± SD of three replicates; for inhibition at 1 µM: read-out: EGFR^wt-TK inhibition rate
T1 construct: purchased
Protocol: The IC50 values of target compounds against EGFR^wt were calculated from the dose − response curve under Graph-Pad Prism 9, which was tested at the different concentrations.

[4] = system: NRK-52E (Normal rat kidney cell line) cells; assay: Cytotoxicity evaluation against normal cell line (MTT); format: cell-based; conditions: 10 μM
Excerpt: Three tumour cells A549, MCF-7, and PC-3 with high expression of EGFR^wt were used to investigate antitumor activities of compounds 9a–9x. NRK-52E (Normal rat kidney cell line) cells were used to evaluate cytotoxicity of compounds 9a–9x. They were all tested with typical MTT method, and Gefitinib were used as positive controls.
NRK-52E (Normal rat kidney cell line) cells were used to evaluate cytotoxicity of compounds 9a–9x.

[5] = system: A549 cells; assay: In vitro activity against cancer cell lines (MTT), A549; format: cell-based; conditions: Homo sapiens, mean ± SD of three replicates
Excerpt: (§1) Co., Ltd. A549 (Human non-small-cell lung cancer cell line) cells, MCF-7 (Human breast cancer
(§2) cell line) cells, and PC-3 (Human prostate cancer cell line) cells. They were all purchased from the
(§3) Shanghai Cell Bank of the Chinese Academy of Sciences. NRK-52E (Normal rat kidney cell line)
(§4) cells donated by Guizhou Medicinal University were also used to evaluate the cytotoxicity.

[6] = system: MCF-7 cells; assay: In vitro activity against cancer cell lines (MTT), MCF-7; format: cell-based; conditions: Homo sapiens, MCF7, mean ± SD of three replicates
Excerpt: as §1, §2, §3, §4

[7] = system: PC-3 cells; assay: In vitro activity against cancer cell lines (MTT), PC-3; format: cell-based; conditions: Homo sapiens, mean ± SD of three replicates
Excerpt: as §1, §2, §3, §4

T1 sequence (P00533 25-1210): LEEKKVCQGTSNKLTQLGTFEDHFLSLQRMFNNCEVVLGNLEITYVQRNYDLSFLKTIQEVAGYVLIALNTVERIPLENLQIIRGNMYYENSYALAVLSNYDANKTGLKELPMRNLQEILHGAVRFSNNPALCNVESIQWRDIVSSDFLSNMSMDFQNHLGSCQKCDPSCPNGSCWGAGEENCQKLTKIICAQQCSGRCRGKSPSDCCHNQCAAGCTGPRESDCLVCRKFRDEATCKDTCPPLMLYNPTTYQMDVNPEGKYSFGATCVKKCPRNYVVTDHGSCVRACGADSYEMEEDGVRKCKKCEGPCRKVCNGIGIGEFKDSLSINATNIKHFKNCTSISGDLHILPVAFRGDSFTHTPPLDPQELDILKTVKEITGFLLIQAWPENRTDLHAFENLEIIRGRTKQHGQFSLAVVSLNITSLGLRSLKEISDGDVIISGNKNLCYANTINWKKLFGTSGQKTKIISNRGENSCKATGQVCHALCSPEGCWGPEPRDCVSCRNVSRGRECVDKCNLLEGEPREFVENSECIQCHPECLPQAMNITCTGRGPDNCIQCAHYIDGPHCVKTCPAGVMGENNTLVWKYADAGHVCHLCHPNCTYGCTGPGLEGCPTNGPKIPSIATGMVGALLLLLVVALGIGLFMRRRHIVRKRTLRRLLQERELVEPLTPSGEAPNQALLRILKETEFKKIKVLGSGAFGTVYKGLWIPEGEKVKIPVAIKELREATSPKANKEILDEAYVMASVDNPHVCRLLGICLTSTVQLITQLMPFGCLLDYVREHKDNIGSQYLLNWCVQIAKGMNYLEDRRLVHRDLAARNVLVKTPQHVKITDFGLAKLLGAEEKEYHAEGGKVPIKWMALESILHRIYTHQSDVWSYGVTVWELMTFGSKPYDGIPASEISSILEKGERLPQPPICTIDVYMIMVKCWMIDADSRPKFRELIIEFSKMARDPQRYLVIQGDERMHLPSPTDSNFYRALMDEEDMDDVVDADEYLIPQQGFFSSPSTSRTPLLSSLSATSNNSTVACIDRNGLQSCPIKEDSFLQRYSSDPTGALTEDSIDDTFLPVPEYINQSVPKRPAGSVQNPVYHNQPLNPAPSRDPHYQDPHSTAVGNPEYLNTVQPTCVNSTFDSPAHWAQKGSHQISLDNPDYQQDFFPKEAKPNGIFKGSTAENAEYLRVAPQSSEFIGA

EGFR^wt-TK inhibition rate ([3]; 1 μM) [%] | inhibition at 1 µM ([3]; 1 μM) [%] | IC50 [3] [µM] | melting point [°C] | IC50 [5] [µM] | IC50 [6] [µM] | IC50 [7] [µM] | SMILES | Q2-4 (early apoptosis) ([1]; A549, 0.1 μM) [%] | Q2-4 (early apoptosis) ([1]; A549, 1 μM) [%] | Proportion of A549 cells at G2/M ([2]; 0.1 μM) [%] | Proportion of A549 cells at G2/M ([2]; 0.5 μM) [%] | Proportion of A549 cells at G2/M ([2]; 1 μM) [%] | inhibition against NRK-52E cells [4]
 |  |  |  |  |  |  | COc1cc2ncnc(Nc3ccc(F)c(Cl)c3)c2cc1OCCCN1CCOCC1 [Gefitinib] | 1.03 | 11.98 | 17.32 | 20.72 | 21.45 | 
62.73 ± 1.86 | > 50 | 0.091 ± 0.0084 | 237.5 to 238.8 | 0.35 ± 0.11 | 3.24 ± 0.16 | 5.12 ± 0.73 | CNC(=O)c1sccc1Nc1nc(Nc2ccc(NC(=O)C=Cc3cccc(F)c3)cc2)ncc1C(F)(F)F [Compound 9u, 3–(2-{4-[3-(3-Fluoro-phenyl)-acryloylamino]-phenylamino} -5-trifluoromethyl-pyrimidin-4-ylamino)-thiophene-2-carboxylic acid methylamide] | 3.39 | 52.96 | 19.79 |  | 43.92 | less than 5%
 | 13.3 ± 0.83 |  | 236.1 to 236.4 | 15.1 ± 2.29 | > 20 | > 20 | CNC(=O)c1sccc1Nc1nc(Nc2ccc(NC(=O)C3CCC3)cc2)ncc1C(F)(F)F [Compound 9m, 3-{2-[4-(Cyclobutanecarbonyl-amino)-phenylamino]-5-trifluoromethyl-pyrimidin-4-ylamino}-thiophene-2-carboxylic acid methylamide] |  |  |  |  |  | 
 | 18.9 ± 1.14 |  | 246.4 to 247.2 | 13.8 ± 1.57 | > 20 | > 20 | CNC(=O)c1sccc1Nc1nc(Nc2ccc(NC(=O)C3CCCC3)cc2)ncc1C(F)(F)F [Compound 9n, 3-{2-[4-(Cyclopentanecarbonyl-amino)-phenylamino]-5-trifluoromethyl-pyrimidin-4-ylamino}-thiophene-2-carboxylic acid methylamide] |  |  |  |  |  | 
